What was measured:
[1] = Inhibition of recombinant N-terminal His6 tagged SUMO-fused Trypanosoma brucei brucei TC221 TAO MTS deletion mutant expressed in Escherichia coli FN102 preincubated for 2 mins followed by ubiquinol-1 addition measured over 2 mins by double beam-dual wavelength UV-spectrophotometry
Trypanosoma brucei = test: Anti-parasitic activity against bloodstream trypomastigote stage of pentamidine/diminazene/melaminophenyl arsenical resistant Trypanosoma brucei B48 after 48 hrs by resazurin-based assay; format: functional, organism-based; conditions: B48, 48 h
[2] = system: Trypanosoma brucei brucei; test: Anti-parasitic activity against bloodstream trypomastigote stage of Trypanosoma brucei brucei with AQP2/3-dd knock out after 48 hrs by resazurin-based assay; format: functional, organism-based
[3] = system: Trypanosoma brucei brucei; test: Anti-parasitic activity against bloodstream trypomastigote stage of wild-type Trypanosoma brucei brucei Lister 427 after 48 hrs by resazurin-based assay; format: functional, organism-based; conditions: Lister 427, 48 h
[4] = system: Trypanosoma brucei brucei; test: Resistance factor, ratio of EC50 for bloodstream trypomastigote stage of Trypanosoma brucei brucei AQP triple knock out to EC50 for bloodstream trypomastigote stage of wild-type Trypanosoma brucei brucei Lister 427; format: functional
[5] = system: Trypanosoma brucei brucei; test: Resistance factor, ratio of EC50 for bloodstream trypomastigote stage of Trypanosoma brucei brucei with AQP2/3-dd knock out to EC50 for bloodstream trypomastigote stage of wild-type Trypanosoma brucei brucei Lister 427; format: functional
[6] = Resistance factor, ratio of EC50 for bloodstream trypomastigote stage of pentamidine/diminazene/melaminophenyl arsenical resistant Trypanosoma brucei B48 to EC50 for bloodstream trypomastigote stage of wild-type Trypanosoma brucei brucei Lister 427; format: functional
[7] = system: Trypanosoma brucei brucei; test: Anti-parasitic activity against bloodstream trypomastigote stage of wild-type Trypanosoma brucei brucei Lister 427 after 48 hrs in presence of 5 mM glycerol by resazurin-based assay; format: functional, organism-based; conditions: Lister 427, 48 h
[8] = Selectivity index, ratio of CC50 for HFF cells to EC50 for bloodstream form of Trypanosoma congolense IL3000; format: toxicity; conditions: human, read-out: Ratio CC50/EC50
[9] = Cytotoxicity against HFF cells assessed as reduction in cell viability after 30 hrs by resazurin-based assay; conditions: human
[10] = system: Trypanosoma brucei brucei; test: Resistance factor, ratio of EC50 for bloodstream trypomastigote stage of wild-type Trypanosoma brucei brucei Lister 427 in presence of 5 mM glycerol to EC50 for bloodstream trypomastigote stage of wild-type Trypanosoma brucei brucei Lister 427; format: functional
[11] = Selectivity index, ratio of CC50 for HFF cells to EC50 for bloodstream trypomastigote stage of wild-type Trypanosoma brucei brucei Lister 427; format: toxicity; conditions: human, read-out: Ratio CC50/EC50
[12] = system: Trypanosoma brucei brucei; test: Anti-parasitic activity against bloodstream trypomastigote stage of Trypanosoma brucei brucei with AQP triple knock out after 48 hrs by resazurin-based assay; format: functional, organism-based
Trypanosoma congolense [13] = test: Anti-parasitic activity against bloodstream form of Trypanosoma congolense IL3000 after 48 hrs by resazurin-based assay; format: functional, organism-based; conditions: IL3000, 48 h
[14] = Selectivity index, ratio of CC50 for HEK cells to EC50 for bloodstream trypomastigote stage of wild-type Trypanosoma brucei brucei Lister 427; format: toxicity; conditions: human, read-out: Ratio CC50/EC50
[15] = Cytotoxicity against HEK cells assessed as reduction in cell viability after 30 hrs by resazurin-based assay; conditions: human
[16] = system: Trypanosoma brucei brucei; test: Potency index, ratio of diminazene EC50 to test compound EC50 for anti-parasitic activity against bloodstream trypomastigote stage of wild-type Trypanosoma brucei brucei Lister 427; format: functional
[17] = Half life in mouse serum by LC/MS analysis; format: ADME, cell-free
Trypanosoma congolense [18] = test: Potency index, ratio of diminazene EC50 to test compound EC50 for anti-parasitic activity against bloodstream form of Trypanosoma congolense IL3000; format: functional
[19] = Competitive inhibition of recombinant N-terminal His6 tagged SUMO-fused Trypanosoma brucei brucei TC221 TAO MTS deletion mutant expressed in Escherichia coli FN102 preincubated for 2 mins followed by ubiquinol-1 addition measured over 2 mins by Lineweaver-Burk plot analysis

| SMILES | IC50 [1] | EC50 (Trypanosoma brucei) | EC50 [2] | EC50 [3] | Ratio EC50 [4] | Ratio EC50 [5] | Ratio EC50 [6] | EC50 [7] | selectivity ratio [8] | CC50 at 30 h [9] | Ratio EC50 [10] | selectivity ratio [11] | EC50 [12] | EC50 (Trypanosoma congolense [13]) | selectivity ratio [14] | CC50 at 30 h [15] | Ratio EC50 [16] | half-life [17] | Ratio EC50 (Trypanosoma congolense [18]) | Ki [19] |
| --- | --- | --- | --- | --- | --- | --- | --- | --- | --- | --- | --- | --- | --- | --- | --- | --- | --- | --- | --- | --- |
| Cc1cc(O)ccc1C(=O)O | 112 µM | – | – | – | – | – | – | – | – | – | – | – | – | – | – | – | – | – | – | – |
| O=Cc1ccc(OCCCCCCCCCCCCCC[n+]2cccc3ccccc32)cc1O.[Br-] | 1.23 µM | 2.35 µM | 0.95 µM | 1.75 µM | 0.62 | 0.54 | 1.3 | 1.23 µM | > 95 | > 200 µM | 0.7 | > 114 | 1.08 µM | 2.1 µM | – | – | – | – | – | – |
| N=C(N)c1ccc(OCCCCCOc2ccc(C(=N)N)cc2)cc1 [PENTAMIDINE] | – | – | 0.047 µM | 0.0033 µM | 19.2 | 14.1 | 285 | – | – | – | 1.14 | – | 0.064 µM | – | – | – | – | – | – | – |
| O=C(OCCCCCCCCCCCCCCBr)c1ccc(O)cc1F | 0.03 µM | 17.3 µM | 6.8 µM | 14.7 µM | 0.48 | 0.46 | 1.2 | 7.19 µM | – | > 200 µM | 0.49 | > 13 | 7 µM | > 50 µM | – | – | – | – | – | – |
| Cc1cc(O)ccc1C(=O)OCCCCCCCCCCCCCCOC(=O)c1ccc(O)cc1C | 0.013 µM | 400 µM | 400 µM | 400 µM | – | – | – | 400 µM | – | > 200 µM | – | – | 400 µM | 400 µM | – | – | – | – | – | – |
| O=C(OCCCCCCCCCCCCCCCCOC(=O)c1ccc(O)cc1O)c1ccc(O)cc1O | 0.0123 µM | 31.9 µM | 14.3 µM | 26.7 µM | 0.35 | 0.54 | 1.2 | 12.4 µM | – | – | 0.46 | – | 9.3 µM | > 100 µM | > 15 | > 400 µM | – | – | – | – |
| O=C(OCCCCCCCCCCCCCCBr)c1ccc(O)cc1O | 0.0108 µM | – | – | – | – | – | – | – | – | – | – | – | – | – | – | – | – | – | – | – |
| N=C(N)c1ccc(/N=N/Nc2ccc(C(=N)N)cc2)cc1 [DIMINAZENE] | – | – | – | – | – | – | 12 | – | – | – | – | – | – | 0.2 µM | – | – | – | – | – | – |
| O=C(OCCCCCCCCCCCCCCCC[P+](c1ccccc1)(c1ccccc1)c1ccccc1)c1ccc(O)cc1O | > 5 µM | – | – | – | – | – | – | – | – | – | – | – | – | – | – | – | – | – | – | – |
| O=C(OCCCCCCCCCCCCCC[P+](c1ccccc1)(c1ccccc1)c1ccccc1)c1ccc(O)cc1F.[Br-] | 0.03 µM | 0.00075 µM | 0.00025 µM | 0.00058 µM | 0.64 | 0.43 | 1.3 | 0.00039 µM | > 11000 | > 200 µM | 0.66 | > 344000 | 0.00037 µM | 0.018 µM | – | – | 5 - 40 | < 15 min | 5 - 40 | – |
| Cc1cc(O)cc(O)c1C(=O)OCCCCCCCCCCCCCCBr | 0.007 µM | 15.6 µM | 7.3 µM | 14.6 µM | 0.47 | 0.5 | 1.1 | 7.71 µM | – | > 200 µM | 0.53 | > 13 | 6.8 µM | > 100 µM | – | – | – | – | – | – |
| O=COCCCCCCCCCCOC(=O)c1ccc(O)cc1O | 0.15 µM | – | 27.4 µM | – | 0.49 | 0.86 | 0.69 | 17.5 µM | – | – | 0.55 | – | 15.6 µM | – | > 12 | > 400 µM | – | – | – | – |
| O=C(OCCCCBr)c1ccc(O)cc1O | 0.45 µM | 400 µM | 400 µM | 400 µM | – | – | – | 400 µM | – | > 200 µM | – | – | 400 µM | – | – | – | – | – | – | – |
| O=Cc1ccc(OCCCCCCCCCCCCCCBr)cc1O | 0.073 µM | 15.5 µM | 8.4 µM | 17.6 µM | 0.45 | 0.48 | 0.9 | 10.7 µM | > 4.6 | > 200 µM | 0.61 | > 11 | 7.9 µM | 42.6 µM | – | – | – | – | – | – |
| O=C(NO)c1ccccc1O [SALICYLHYDROXAMIC ACID] | – | – | 31.9 µM | – | – | – | – | – | – | – | – | – | 8.9 µM | – | – | – | – | – | – | – |
| O=C(OCCCCCCCCCCCCOC(=O)c1ccc(O)cc1O)c1ccc(O)cc1O | 0.007 µM | 33.6 µM | 26.7 µM | 32.9 µM | 0.27 | 0.81 | 1 | 13.6 µM | – | – | 0.41 | – | 8.9 µM | > 100 µM | > 12 | > 400 µM | – | – | – | – |
| O=C(O)c1ccc(O)cc1F | 115 µM | – | – | – | – | – | – | – | – | – | – | – | – | – | – | – | – | – | – | – |
| O=COCCCCCCCCCCCCCCOc1ccc(C=O)c(O)c1 | 0.33 µM | 3.6 µM | 1.4 µM | 3.8 µM | 0.48 | 0.38 | 1 | 1.8 µM | – | > 200 µM | 0.48 | > 52 | 1.82 µM | – | – | – | – | – | – | – |
| O=C(O)c1ccc(O)cc1O [2,4-DIHYDROXYBENZOIC ACID] | 116 µM | – | – | – | 0.96 | – | – | – | – | – | – | – | 16.6 µM | – | – | – | – | – | – | – |
| O=C(OCCCCCCCCCCCCCC[P+](c1ccccc1)(c1ccccc1)c1ccccc1)c1ccc(O)cc1O | 1.46 µM | – | – | – | – | – | – | – | – | – | – | – | – | – | – | – | – | – | – | – |
| Cc1cc(O)cc(O)c1C(=O)O [ORSELLINIC ACID] | 143 µM | – | – | – | – | – | – | – | – | – | – | – | – | – | – | – | – | – | – | – |
| O=C(OCCCCCCBr)c1ccc(O)cc1O | 0.24 µM | 20.5 µM | 11.6 µM | 17.7 µM | 0.68 | 0.65 | 1.2 | 12.1 µM | > 2.7 | > 200 µM | 0.68 | > 11 | 12.1 µM | 72.9 µM | – | – | – | – | – | – |
| O=Cc1ccc(OCCCCCCCCCCCCCCOc2ccc(C=O)c(O)c2)cc1O | 0.24 µM | 400 µM | 400 µM | 400 µM | – | – | – | 400 µM | – | > 200 µM | – | – | 400 µM | 400 µM | – | – | – | – | – | – |
| O=C(OCCCCCCCCCCCCCCCCBr)c1ccc(O)cc1O | 0.0124 µM | – | 14.5 µM | – | 0.11 | 0.32 | 1.07 | 11.1 µM | – | – | 0.24 | – | 5.1 µM | – | > 8 | > 400 µM | – | – | – | – |
| Cc1cc(O)ccc1C(=O)OCCCCCCCCCCCCCCOC=O | 0.0011 µM | 4.44 µM | 1.4 µM | 4.1 µM | 0.45 | 0.34 | 1.1 | 7.8 µM | – | > 200 µM | 1.92 | > 48 | 1.8 µM | – | – | – | – | – | – | 0.0041 µM |
| Cc1cc(O)ccc1C(=O)OCCCCCCCCCCCCCCBr | 0.007 µM | 14.4 µM | 7.1 µM | 14.4 µM | 0.5 | 0.49 | 1 | 7.5 µM | – | > 200 µM | 0.52 | > 13 | 7.2 µM | – | – | – | – | – | – | – |
| O=C(OCCCCCCCCCCCCCCOC(=O)c1ccc(O)cc1O)c1ccc(O)cc1O | 0.0157 µM | 36.6 µM | 28.2 µM | 42.1 µM | 0.35 | 0.67 | 0.87 | 15.9 µM | – | – | 0.38 | – | 14.8 µM | > 100 µM | > 9 | > 400 µM | – | – | – | – |
| O=C(OCCCCCCCCCCCCCCCC[n+]1cccc2ccccc21)c1ccc(O)cc1O | > 5 µM | – | – | – | – | – | – | – | – | – | – | – | – | – | – | – | – | – | – | – |

— ChEMBL document CHEMBL4229345, “Inhibition of trypanosome alternative oxidase without its N-terminal mitochondrial targeting signal (ΔMTS-TAO) by cationic and non-cationic 4-hydroxybenzoate and 4-alkoxybenzaldehyde derivatives active against T. brucei and T. congolense” (Eur J Med Chem, 2018)
